Test results reported in US7740882B2, “Enhanced oral and transcompartmental delivery of therapeutic or diagnostic agents” (priority 2001, dated 2010).
Values joined by “and” are separate entries in the source; they are usually repeats but may differ in a detail not shown here. Identical values can stand only once. “Also recorded” adds a separate entry of the source.

Tests used:
SMVT = molecular target: T1, SMVT (Homo sapiens, UniProt Q9Y289); experiment: Inhibition of substrate uptake in CHO/hSMVT cells by 50 μM SMVT substrates; format: in vitro ADME; set-up: expressed in transfected cells; host or cells: CHO cells (ATCC), transient Lipofectamine transfection; plasmid was a gift of Dr. Puttur D. Prasad
T1 sequence (Q9Y289 1-635): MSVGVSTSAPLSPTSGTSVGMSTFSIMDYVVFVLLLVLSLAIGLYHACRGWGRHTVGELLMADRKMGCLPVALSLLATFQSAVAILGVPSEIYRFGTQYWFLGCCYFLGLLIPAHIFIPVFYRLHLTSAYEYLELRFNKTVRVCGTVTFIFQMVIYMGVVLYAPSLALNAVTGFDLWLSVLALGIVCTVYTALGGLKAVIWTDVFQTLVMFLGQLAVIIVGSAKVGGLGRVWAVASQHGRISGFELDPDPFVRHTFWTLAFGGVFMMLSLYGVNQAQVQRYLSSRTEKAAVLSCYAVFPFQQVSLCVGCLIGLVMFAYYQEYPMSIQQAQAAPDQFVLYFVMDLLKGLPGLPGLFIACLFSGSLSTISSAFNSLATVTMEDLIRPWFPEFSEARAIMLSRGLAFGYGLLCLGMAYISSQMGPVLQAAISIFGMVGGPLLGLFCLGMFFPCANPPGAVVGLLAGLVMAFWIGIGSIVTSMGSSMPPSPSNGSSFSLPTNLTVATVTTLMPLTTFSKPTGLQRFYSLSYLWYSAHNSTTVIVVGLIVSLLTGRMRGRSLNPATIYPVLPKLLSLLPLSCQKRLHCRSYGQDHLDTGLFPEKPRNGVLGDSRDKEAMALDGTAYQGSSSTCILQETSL

in vitro = details: human, Caco-2
Protocol: (§2) Caco-2 Cell Transport Studies An Ussing-type diffusion chamber system (Harvard Apparatus, Natick, Mass.) was used to perform transport studies. The apical solution was a MES Ringer's buffer (pH 6.5) consisting of 114.0 mM NaCl, 5.0 mM KCl, 1.1 mM MgSO4, 1.25 mM CaSO4, and 15 mM 2-(N-morpholino)ethanesulfonic acid (MES). The basolateral solution was a Ringer's buffer (pH 7.4) consisting of 114.0 mM NaCl, 5.0 mM KCl, 1.65 mM Na2HPO4, 0.3 mM NaH2PO4, 25 mM NaHCO3, 1.1 mM MgSO4, and 1.25 mM CaSO4. Both buffers contained 25 mM glucose and were adjusted to 290 mOsm/kg using a vapor pressure osmometer (Wescor Inc, Logan, Utah). For transport experiments using filters with cell monolayers, the inserts were rinsed with Ringer's buffet containing 25 mM glucose three times over a 20 min period at room temperature. The TEER was measured for each monolayer before it was mounted onto the diffusion chamber, which was pre-warmed to 37° C. by placement on the heating blocks. The volume of each half-chamber was 5 ml and the surface area of the Snapwell™ filters available for drug transport was 1 cm^2. […] The donor solution consisted of radiolabeled permeant in the apical buffer [apical (AP) to basolateral (BL) study]. Starting at 30 min, samples were taken from the receptor chamber every 15 min until the end of the experiment (105 min). A minimum of three monolayers was used to determine the permeability of test compound in each study and sample analysis was performed using scintillation counting (Perkin Elmer, Gaithersburg, Md.).
(§3) The Michaelis-Menten kinetic parameters of Caco-2 and CHO cell transport were then estimated using non-linear regression.
(§4) Prior to experimentation, diffusion chambers mounted with the Snapwells™ containing Caco-2 cells were equilibrated at 5° C., 10° C., 15° C., 25° C. and 37° C.
(§5) [formula] where Pe is the effective permeability of the substrate transported, Cs is the substrate concentration and Pm and Pc represent the passive and carrier-mediated component of the permeability. All data were initially fitted to a 3-parameter model (Pc, Pm, Km for Caco-2 studies, Jmax, Pm, Km for CHO studies).
(§6) Caco-2 Cell Transport Studies An Ussing-type diffusion chamber system (Harvard Apparatus, Natick, Mass.) was used to perform transport studies. The apical solution was a MES Ringer's buffer (pH 6.5) consisting of 114.0 mM NaCl, 5.0 mM KCl, 1.1 mM MgSO4, 1.25 mM CaSO4, and 15 mM 2-(N-morpholino)ethanesulfonic acid (MES). The basolateral solution was a Ringer's buffer (pH 7.4) consisting of 114.0 mM NaCl, 5.0 mM KCl, 1.65 mM Na2HPO4, 0.3 mM NaH2PO4, 25 mM NaHCO3, 1.1 mM MgSO4, and 1.25 mM CaSO4. Both buffers contained 25 mM glucose and were adjusted to 290 mOsm/kg using a vapor pressure osmometer (Wescor Inc, Logan, Utah). For transport experiments using filters with cell monolayers, the inserts were rinsed with Ringer's buffer containing 25 mM glucose three times over a 20 min period at room temperature. The TEER was measured for each monolayer before it was mounted onto the diffusion chamber, which was pre-warned to 37° C. by placement on the heating blocks.

[1] = test system: colonic epithelial NCM460 cells; details: read-out: Km of biotin transport; literature; cited from earlier work
CHO/pSPORT cells = experiment: Non-specific uptake in vector-transfected control CHO/pSPORT cells
Protocol: CHO Cell Uptake Studies CHO cells transiently transfected with hSMVT (CHO/hSMVT) were washed twice with 25 mM uptake buffer, containing 25 mM Hepes/Tris pH 7.5, 140 mM NaCl, 5.4 mM KCl, 1.8 CaCl2, 0.8 mM MgSO4 and 5 mM glucose, approximately 48 hours post-transfection. Subsequently, the cells were incubated with the permeant at 37° C. for 10 minutes. Uptake was stopped by washing the cells thrice with ice-cold buffer. Non-specific uptake was measured in parallel experiments with the control pSPORT vector-transfected CHO cells. Finally, the cells were solubilized by 0.1% v/v Triton X-100, and 0.6 ml was used for scintillation counting. […] Bovine serum albumin was used as the standard.
CHO Cell Uptake Studies CHO cells transiently transfected with hSMVT were washed twice with 25 mM uptake buffer, containing 25 mM Hepes/Tris pH 7.5, 140 mM NaCl, 5.4 mM KCl, 1.8 CaCl2, 0.8 mM MgSO4 and 5 mM glucose. […] Non-specific uptake was measured in parallel experiments with the control pSPORT vector-transfected CHO cells. […] From the remaining volume, 10 μl of solution was taken from each well and protein concentration was determined using the Bio-Rad reagent according to the manufacturer's instructions. […]
CHO Cell Uptake Studies. […] Non-specific uptake was measured in parallel experiments with the control pSPORT vector-transfected CHO cells. […]

Caco-2 cell monolayers = experiment: Absorptive (AP to BL) transport across Caco-2 cell monolayers; details: Caco-2 absorptive transport
Protocol: as §2, §3, §4, §5, §6

rat small intestine = details: read-out: Km of biotin transport; literature; cited from earlier work
[2] = molecular target: T2, human sodium dependent multivitamin transporter, hSMVT (Homo sapiens, UniProt Q9Y289); experiment: Uptake in CHO cells transiently transfected with hSMVT (CHO/hSMVT); details: for Pm, passive uptake component: CHO/hSMVT cellular uptake, (S.D), n = 3
T2 sequence (Q9Y289 1-635): T1 sequence (Q9Y289 1-635)
Protocol: (§1) CHO Cell Uptake Studies CHO cells transiently transfected with hSMVT (CHO/hSMVT) were washed twice with 25 mM uptake buffer, containing 25 mM Hepes/Tris pH 7.5, 140 mM NaCl, 5.4 mM KCl, 1.8 CaCl2, 0.8 mM MgSO4 and 5 mM glucose, approximately 48 hours post-transfection. Subsequently, the cells were incubated with the permeant at 37° C. for 10 minutes. Uptake was stopped by washing the cells thrice with ice-cold buffer. Non-specific uptake was measured in parallel experiments with the control pSPORT vector-transfected CHO cells. Finally, the cells were solubilized by 0.1% v/v Triton X-100, and 0.6 ml was used for scintillation counting. From the remaining volume, 10 μl of solution was taken from each well and protein concentration was determined using the Bio-Rad reagent according to the Bradford technique [M. Bradford, A rapid and sensitive method of quantitation of microgram quantities of protein utilizing the principle of protein-dye binding, Anal. Biochem. 72 (1976) 248]. Bovine serum albumin was used as the standard.
Parallel uptake experiments were performed using CHO/pSPORT control cells.
as §1, with “hSMVT” for “hSMVT (CHO/hSMVT)”, “glucose.” for “glucose, approximately 48 hours post-transfection.”, “Washing” for “Uptake was stopped by washing”, “three times” for “thrice”, “buffer stopped drug uptake.” for “buffer.”, “manufacturer's instructions.” for “Bradford technique [M. Bradford, A rapid and sensitive method of quantitation of microgram quantities of protein utilizing the principle of protein-dye binding, Anal. Biochem. 72 (1976) 248].”
as §1, with “Studies.” for “Studies”, “glucose.” for “glucose, approximately 48 hours post-transfection.”, “manufacturer's instructions.” for “Bradford technique [M. Bradford, A rapid and sensitive method of quantitation of microgram quantities of protein utilizing the principle of protein-dye binding, Anal. Biochem. 72 (1976) 248].”

[3] = test system: human intestinal brush-border membrane vesicles; details: read-out: Km of biotin transport; literature; cited from earlier work
[4] = test system: bovine brain microvessel endothelial cells (BBMECs); experiment: Transport (permeability) across BBMEC monolayers, in vitro BBB model; details: read-out: Km of transport and uptake; BBMECs
Protocol: Non-biotinylated PEGs were used in the control studies.
Isolation and culture of BBMECs. Bovine Brain Microvessel Endothelial Cells (BBMECs) were used as an in vitro model of BBB. BBMECs were isolated from bovine brain by a two-step enzymatic method and the cells were cultured on collagen coated Transwell™ plates or polystyrene plates in an atmosphere of 95% air and 5% CO2 at 37° C. Transendothelial electrical resistance (TEER) and several molecular markers were used to validate the integrity of the cell culture system.
The cells were cultured on 12-well Transwell™ filters for 7-8 days and transport was evaluated. […] All studies were performed at 37° C.

TAR RNA = details: unpublished results of the inventors

| Compound | inhibition of RI-K(biotin)-Tat9 uptake (SMVT; 0.1 μM RI-K(biotin)-Tat9, inhibitor 50 μM) | inhibition of biotin-PEG-3400 uptake (SMVT; 0.1 μM biotin-PEG-3400, inhibitor 50 μM) | inhibition of PEG:(RI-K(biotin)-Tat9)8 uptake (SMVT; 0.1 μM conjugate, inhibitor 50 μM) | Papp at 105 min (in vitro) [×10⁻⁶ cm/s] | Km [1] [µM] | uptake in CHO/pSPORT cells (CHO/pSPORT cells) [pmol/mg protein/10 min] | Km (Caco-2 cell monolayers) [µM] | Km (rat small intestine) [µM] | Pm, passive uptake component [2] | Jmax ([2]; uptake in CHO/hSMVT cells) | Km [3] [µM] | Km [4] [µM] | TAR RNA binding activity (TAR RNA) | Jmax without Pm component in the regression model ([2]; CHO/hSMVT) [pmol/mg protein/10 min] | uptake of substrate alone (control of inhibition study) ([2]; CHO/hSMVT, 0.1 μM, 10 min) [pmol/mg protein/10 min] | uptake, fold greater than RI-K-Tat9 ([2]; CHO/hSMVT, at 10 μM) [fold] | Km ([2]; uptake in CHO/hSMVT cells, 10 min, 37° C.) [µM] |
| --- | --- | --- | --- | --- | --- | --- | --- | --- | --- | --- | --- | --- | --- | --- | --- | --- | --- |
| O=C(O)CCCC[C@@H]1SC[C@@H]2NC(=O)N[C@@H]21 [Biotin, biotin] | significantly inhibited; also recorded: significantly lowered (p<0.001) | significantly (p<0.01) inhibited | significantly lower (p<0.05) | 3.35 | 19.7 | 23.73 | 11.3 | 8.77 | 3.50 (3.0) pmol/mg protein/10 min | 174.61±47.53 pmol/mg protein/10 min and 174.61 (47.53) pmol/mg protein/10 min | 5.26 | – | – | – | – | – | – |
| N-acetyl-D-Lys:(ε-biotin)-D-Arg-D-Arg-D-Arg-D-Gln-D-Arg-D-Arg-D-Lys-D-Lys-D-Arg-NH2 [RI-K(biotin)-Tat9] | – | – | – | – | – | – | 3.27 | – | 32.90 (4.48) pmol/mg protein/10 min | 227.26±29.33 pmol/mg protein/10 min and 227.26 pmol/mg protein/10 min and 227.26 (29.33) pmol/mg protein/10 min | – | ~40 | comparable TAR RNA binding activity to Tat9-K(biotin) | 675.95 | ~41.93 | ~500 | 1 ± 0.13 |
